From article PMC10538222, “Isolation and Characterization of Anti-Inflammatory Compounds from Ficus microcarpa L.f. Stem Bark” (Plants, 2023)
Where two headings read alike, the source gives them in different places.

Key:
ovine COX-1 = target: T1, ovine COX-1 (Ovis aries, UniProt P05979); experiment: Colorimetric COX (ovine) inhibitor screening assay, COX-1; type: biochemical
T1 construct: purchased Cayman Chemical Co. 760111
T1 sequence (P05979 25-600): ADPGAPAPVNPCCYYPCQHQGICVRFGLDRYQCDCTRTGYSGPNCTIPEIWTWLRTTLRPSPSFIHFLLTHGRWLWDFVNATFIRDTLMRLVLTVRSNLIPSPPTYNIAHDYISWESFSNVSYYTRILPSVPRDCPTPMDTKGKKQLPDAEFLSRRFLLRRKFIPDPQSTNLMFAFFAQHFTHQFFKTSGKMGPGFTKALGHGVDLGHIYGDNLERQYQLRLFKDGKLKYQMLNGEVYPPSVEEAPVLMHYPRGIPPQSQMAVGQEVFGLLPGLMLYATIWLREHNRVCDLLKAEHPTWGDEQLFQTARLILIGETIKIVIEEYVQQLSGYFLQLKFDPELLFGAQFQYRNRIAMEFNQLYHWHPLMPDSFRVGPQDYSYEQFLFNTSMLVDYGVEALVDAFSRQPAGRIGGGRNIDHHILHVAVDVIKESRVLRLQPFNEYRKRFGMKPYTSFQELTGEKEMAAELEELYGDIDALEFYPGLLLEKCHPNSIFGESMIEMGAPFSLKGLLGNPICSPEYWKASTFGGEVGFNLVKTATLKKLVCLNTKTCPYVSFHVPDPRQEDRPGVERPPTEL
Source text: (§1) The IC50 is the concentration of tested compounds calculated using the regression equation.

ovine COX-2 = target: T2, ovine COX-2 (Ovis aries, UniProt P79208); experiment: Colorimetric COX (ovine) inhibitor screening assay, COX-2; type: biochemical
T2 construct: purchased Cayman Chemical Co. 760111
T2 sequence (P79208 17-603): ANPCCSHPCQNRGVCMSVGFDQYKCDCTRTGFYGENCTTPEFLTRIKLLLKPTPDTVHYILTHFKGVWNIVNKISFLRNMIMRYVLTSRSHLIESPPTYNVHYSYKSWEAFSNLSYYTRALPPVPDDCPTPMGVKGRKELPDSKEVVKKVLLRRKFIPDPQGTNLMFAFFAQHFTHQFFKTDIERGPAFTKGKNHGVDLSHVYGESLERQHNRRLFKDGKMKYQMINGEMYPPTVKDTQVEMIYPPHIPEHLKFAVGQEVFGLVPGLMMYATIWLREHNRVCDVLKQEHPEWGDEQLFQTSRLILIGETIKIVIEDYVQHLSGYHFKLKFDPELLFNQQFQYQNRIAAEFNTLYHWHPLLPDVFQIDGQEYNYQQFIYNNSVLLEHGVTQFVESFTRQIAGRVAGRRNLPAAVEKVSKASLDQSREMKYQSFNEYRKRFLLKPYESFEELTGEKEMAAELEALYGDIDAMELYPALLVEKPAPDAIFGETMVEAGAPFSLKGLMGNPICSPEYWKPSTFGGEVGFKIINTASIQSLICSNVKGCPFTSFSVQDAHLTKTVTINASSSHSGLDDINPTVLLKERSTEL
Source text: as §1

[1] = system: CFA-induced chronic inflammation rats; experiment: Hematological parameters in CFA-induced chronic inflammation; type: in vivo, Wistar rats; details: 10 mg/kg p.o. once daily for 21 days; blood on 21st day
Experimental: (§2) The chronic anti-inflammatory activity of EAFMB was evaluated using the CFA-induced rat paw edema model. Wistar rats of either sex (180 to 200 g) were randomly divided into four groups, each comprising six animals. The control group (Group I) received only a vehicle (0.5% CMC, p.o.). […] Groups III to IV were treated with EAFMB (100 and 200 mg/kg, p.o., respectively) once daily for 21 days. On day 0, chronic inflammation, i.e., arthritis, was induced via injecting 0.1 mL of CFA containing 0.5% of dry heat-killed Mycobacterium tuberculosis in sterile paraffin oil into the sub-plantar region in the left hind paw of rats. The animals were evaluated for the following parameters: • % of a rise or inhibition of oedema
On the 21st day, blood was withdrawn through a retro-orbital plexus puncture from all treated groups under light ether anesthesia. The hematological parameters like hemoglobin content, total WBC count, ESR, and RBC were analyzed using Yumizen H550, HORIBA Hematology Analyzer, France.

[2] = system: carrageenan-induced rat paw edema; experiment: Carrageenan-induced acute inflammation (rat paw edema); type: in vivo, Wistar albino rats; details: 10 mg/kg p.o.
Experimental: The acute anti-inflammatory activity of EAFMB was evaluated using the carrageenan-induced rat paw edema model. Experimental animals were randomly divided into four groups, with six animals in each group. Group I (the control group) received a vehicle (1% CMC). […] Groups III and IV (test group) were given EAFMB at 100 and 200 mg/kg p.o doses, respectively. The drugs were administered orally 1 h before the carrageenan injection. The 0.1 mL of freshly prepared carrageenan suspension was injected into the left hind paw of each rat. The paw volume was measured using a Plethysmometer (Ugo Basile 2470, Italy) at 1, 2, 3, 4, 5, and 6 h after carrageenan administration. The results were expressed as a percentage of the increase in paw swelling and a percentage of the inhibition of paw swelling compared to the initial hind paw thickness. % Increase in Paw Volume =Final Paw Volume at specific time point − Intial Paw Volume at 0 h/Intial Paw Volume at 0 h×100 % Inhibition=Paw Volume at of Control − Paw Volume of treated group/Intial Paw VoluPaw Volume at of Control me at 0 h×100

[3] = system: CFA-induced rat paw edema; experiment: CFA-induced chronic inflammation (rat paw oedema); type: in vivo, Wistar rats; details: 10 mg/kg p.o. once daily
Experimental: as §2
After the CFA injection, the paw oedema was measured using a plethysmograph on day 0 and thereafter on days 4, 8, 14, and 21. The results were expressed as the percent rise in and percent inhibition of paw oedema as per the formulae mentioned in the acute inflammation study. • Hematological Parameters

Oc1cc(O)c2c(c1)OC(c1ccc(O)c(O)c1)C(O)C2 (stereo not shown) [Catechin, catechin]
IC50 (ovine COX-1): 9.02 µM | IC50 (ovine COX-2): 50.4 µM

O=C(O)C=Cc1ccc(O)cc1 [P-hydroxycinnamic acid, p-hydroxycinnamic acid]
IC50 (ovine COX-1; ovine COX-1, colorimetric, TMPD 590 nm, read-out: COX Inhibition (IC50) COX-1): 229 µM | IC50 (ovine COX-2; ovine COX-2, colorimetric, TMPD 590 nm, read-out: COX Inhibition (IC50) COX-2): 246 µM

COc1ccc2c(c1)c(CC(=O)O)c(C)n2C(=O)c1ccc(Cl)cc1 [Indomethacin, indomethacin]
ESR [1]: 5.42 ± 0.31 mm/h | Hb [1]: 14.62 ± 0.27 g% | RBC [1]: 9.58 ± 0.27 millions/cubic mm | WBC [1]: 6.37 ± 0.36 *** 10^3/cubic mm | % Inhibition of paw oedema ([2]; 1 h after carrageenan): 27.78% | % Rise in Paw Oedema ([2]; 1 h after carrageenan): 14.28 ± 0.42% | % Inhibition of paw oedema ([2]; 2 h after carrageenan): 56.84% | % Rise in Paw Oedema ([2]; 2 h after carrageenan): 15.85 ± 0.41% | % Inhibition of paw oedema ([2]; 3 h after carrageenan): 57.97% | % Rise in Paw Oedema ([2]; 3 h after carrageenan): 18.19 ±0.36% | % Inhibition of paw oedema ([2]; 4 h after carrageenan): 59.39% | % Rise in Paw Oedema ([2]; 4 h after carrageenan): 21.01 ± 0.51% | % Inhibition of paw oedema ([2]; 5 h after carrageenan): 54.37% | % Rise in Paw Oedema ([2]; 5 h after carrageenan): 26.18 ± 0.63% | % Inhibition of paw oedema ([2]; 6 h after carrageenan): 48.18% | % Rise in Paw Oedema ([2]; 6 h after carrageenan): 31.2 ± 0.81% | % Inhibition of paw oedema ([3]; 4th day after CFA): 46.78% | % Rise in Paw Oedema ([3]; 4th day after CFA): 41.92 ± 1.46% | % Inhibition of paw oedema ([3]; 8th day after CFA): 70.16% | % Rise in Paw Oedema ([3]; 8th day after CFA): 27.95 ± 1.58% | % Inhibition of paw oedema ([3]; 14th day after CFA): 84.48% | % Rise in Paw Oedema ([3]; 14th day after CFA): 14.77 ± 1.39% | % Inhibition of paw oedema ([3]; 21st day after CFA): 87.35% | % Rise in Paw Oedema ([3]; 21st day after CFA): 11.99 ± 0.89%
